The test concerns L1210 leukemia ip in BDF1 mice, survival T/C. In words: NCI In Vivo Anticancer Drug Screen. Data for tumor model L1210 Leukemia (intraperitoneal) in B6D2F1 (BDF1) mice. As to conditions: endpoint: mean survival time, higher = longer survival. The method in brief:
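Read-out is survival time, reported as the treated-group measurement over the vehicle-control measurement.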

Setting [1] is: dose: 6.25 mg/kg/injection, schedule: Q04DX003 (ip), vehicle: saline.
[2] abbreviates: dose: 12.5 mg/kg/injection, schedule: Q01DX009 (ip), vehicle: saline.
Setting [3] is: dose: 12.5 mg/kg/injection, schedule: Q04DX003 (ip), vehicle: saline.
Where [4] appears, read: dose: 25.0 mg/kg/injection, schedule: Q04DX003 (ip), vehicle: saline.
Setting [5] is: dose: 50.0 mg/kg/injection, schedule: Q01DX009 (ip), vehicle: Klucel (hydroxypropylcellulose) (HPC).
[6] abbreviates: dose: 100.0 mg/kg/injection, schedule: Q01DX009 (ip), vehicle: Klucel (hydroxypropylcellulose) (HPC).
Setting [7] is: dose: 100.0 mg/kg/injection, schedule: Q04DX003 (ip), vehicle: Klucel (hydroxypropylcellulose) (HPC).
The mark [8] stands for this setting: dose: 200.0 mg/kg/injection, schedule: Q01DX009 (ip), vehicle: Klucel (hydroxypropylcellulose) (HPC).
The mark [9] stands for this setting: dose: 200.0 mg/kg/injection, schedule: Q04DX003 (ip), vehicle: Klucel (hydroxypropylcellulose) (HPC).
[10] abbreviates: dose: 400.0 mg/kg/injection, schedule: Q01DX009 (ip), vehicle: Klucel (hydroxypropylcellulose) (HPC).
Setting [11] is: dose: 400.0 mg/kg/injection, schedule: Q04DX003 (ip), vehicle: Klucel (hydroxypropylcellulose) (HPC).
The mark [12] stands for this setting: dose: 100.0 mg/kg/injection, schedule: Q04DX002 (ip), vehicle: saline with Tween-80.
[13] abbreviates: dose: 200.0 mg/kg/injection, schedule: Q04DX002 (ip), vehicle: saline with Tween-80.
Where [14] appears, read: dose: 400.0 mg/kg/injection, schedule: Q04DX002 (ip), vehicle: saline with Tween-80.
[15] abbreviates: dose: 100.0 mg/kg/injection, schedule: Q01DX009 (ip), vehicle: saline with Tween-80.
[16] abbreviates: dose: 100.0 mg/kg/injection, schedule: Q04DX003 (ip), vehicle: saline with Tween-80.
[17] abbreviates: dose: 200.0 mg/kg/injection, schedule: Q01DX009 (ip), vehicle: saline with Tween-80.
Where [18] appears, read: dose: 200.0 mg/kg/injection, schedule: Q04DX003 (ip), vehicle: saline with Tween-80.
[19] abbreviates: dose: 400.0 mg/kg/injection, schedule: Q01DX009 (ip), vehicle: saline with Tween-80.
Setting [20] is: dose: 100.0 mg/kg/injection, schedule: Q01DX001 (ip), vehicle: Klucel (hydroxypropylcellulose) (HPC).
Where [21] appears, read: dose: 200.0 mg/kg/injection, schedule: Q01DX001 (ip), vehicle: Klucel (hydroxypropylcellulose) (HPC).
Where [22] appears, read: dose: 100.0 mg/kg/injection, schedule: Q01DX001 (ip), vehicle: carboxymethylcellulose (CMC).

Where “and” joins values, the source holds several entries; their conditions need not be identical. Identical values can stand only once. Inconclusive results and toxic doses are left out. Square brackets hold non-standard residues; d marks the D form. Peptide text beside a SMILES is read from it. * marks the point of attachment. Cbz = O=C(OCc1ccccc1)*; Sar = CNCC(=O)O

From PubChem BioAssay AID248 (DTP/NCI, 2004) come the findings set out here.

Take `CCCC[P+](c1ccccc1)(c1ccccc1)c1ccccc1`: the T/C runs as follows: under setting [1], 107 % of control; (dose: 12.5 mg/kg/injection, schedule: Q01DX009 (ip), vehicle: Klucel (hydroxypropylcellulose) (HPC)) 114 % of control; under setting [2], 113 % of control; under setting [3], 107 % of control; (dose: 25.0 mg/kg/injection, schedule: Q01DX009 (ip), vehicle: Klucel (hydroxypropylcellulose) (HPC)) 112 % of control; (dose: 25.0 mg/kg/injection, schedule: Q01DX009 (ip), vehicle: saline) 115 % of control. Moreover, the T/C by setting is: under setting [4], 105 % of control; under setting [5], 109 % of control; (dose: 50.0 mg/kg/injection, schedule: Q04DX003 (ip), vehicle: saline) 104 % of control.
Consider `Cc1c(C)c(C)c(CC2(C)CSC2)c(CC2(C)CSC2)c1C`, for which the T/C (dose: 100.0 mg/kg/injection, schedule: Q04DX002 (ip), vehicle: Klucel (hydroxypropylcellulose) (HPC)) was 100 % of control; the T/C (dose: 200.0 mg/kg/injection, schedule: Q04DX002 (ip), vehicle: Klucel (hydroxypropylcellulose) (HPC)) was 91 % of control; the T/C (dose: 400.0 mg/kg/injection, schedule: Q04DX002 (ip), vehicle: Klucel (hydroxypropylcellulose) (HPC)) was 94 % of control.
For `CCCCOc1cc(C(=O)NCCN(CC)CC)c2ccccc2n1`, the T/C reads like this: under setting [1], 98 % of control; under setting [3], 98 % of control; under setting [4], 107 % of control.
`CC(=O)CC(C)=Nc1ccc(Cl)cc1`: the T/C is, setting by setting: under setting [6], 97 % of control; under setting [7], 96 % of control; under setting [8], 105 % of control; under setting [9], 110 % of control; under setting [10], 108 % of control; under setting [11], 104 % of control.
In the case of `Nc1cc(C(=O)Nc2ccc(S(=O)(=O)O)cc2)ccc1C(=O)Nc1ccc(S(=O)(=O)O)cc1`, the T/C is 87 % of control (dose: 31.0 mg/kg/injection, schedule: Q01DX Z (ip), vehicle: water); 100 % of control (dose: 62.5 mg/kg/injection, schedule: Q01DX Z (ip), vehicle: water); 97 % of control (dose: 125.0 mg/kg/injection, schedule: Q01DX Z (ip), vehicle: water); 95 % of control (dose: 250.0 mg/kg/injection, schedule: Q01DX Z (ip), vehicle: water); 97 % of control (dose: 500.0 mg/kg/injection, schedule: Q01DX Z (ip), vehicle: water).
With `CC(=O)[C@H]1CC[C@H]2[C@@H]3CC[C@@H]4C[C@@H](O)CC[C@]4(C)[C@H]3CC[C@]12C`, the T/C by setting is: under setting [12], 97 % of control; under setting [13], 100 % of control; under setting [14], 90 % of control.
Turning to `CC(=O)NC(C)(NC(=O)CCl)C(=O)O` (stereo not given), the T/C (dose: 100.0 mg/kg/injection, schedule: Q01DX001 (ip), vehicle: saline with Tween-80) is 98 % of control; the T/C under setting [15] is 94 % of control and 108 % of control; the T/C under setting [12] is 96 % of control and 101 % of control; the T/C under setting [16] is 106 % of control; the T/C (dose: 200.0 mg/kg/injection, schedule: Q01DX001 (ip), vehicle: saline with Tween-80) is 102 % of control; the T/C under setting [17] is 89 % of control and 90 % of control. In addition, the T/C is, setting by setting: under setting [13], 93 % of control and 104 % of control; under setting [18], 98 % of control; (dose: 400.0 mg/kg/injection, schedule: Q01DX001 (ip), vehicle: saline with Tween-80) 107 % of control; under setting [19], 97 % of control; under setting [14], 95 % of control and 101 % of control.
In the case of `CCOc1ccc(-n2c(O)c(N=Nc3ccc(Cl)cc3)c(=O)n(-c3ccc(OC)cc3)c2=S)cc1`, the T/C was 96 % of control under setting [20]; 98 % of control under setting [21]; 96 % of control (dose: 400.0 mg/kg/injection, schedule: Q01DX001 (ip), vehicle: Klucel (hydroxypropylcellulose) (HPC)).
As for `CCC[CH2][Pb]([Cl])([Cl])[CH2]CCC`, the T/C (dose: 5.0 mg/kg/injection, schedule: Q01DX001 (ip), vehicle: carboxymethylcellulose (CMC)) is 95 % of control; the T/C (dose: 20.0 mg/kg/injection, schedule: Q01DX001 (ip), vehicle: carboxymethylcellulose (CMC)) was 108 % of control; the T/C (dose: 40.0 mg/kg/injection, schedule: Q01DX001 (ip), vehicle: carboxymethylcellulose (CMC)) was 97 % of control; the T/C under setting [22] was 103 % of control.
Regarding `CC12OC1(C)C1(C)C3(C)OC3(C)C21C` (stereo not given), the T/C is 97 % of control under setting [5]; 100 % of control under setting [20]; 96 % of control under setting [6]; 100 % of control under setting [21]; 96 % of control under setting [8].
Turning to `CC1CC[N+]2(C)CCCC12` (stereo not given), the T/C by setting is: (dose: 6.25 mg/kg/injection, schedule: Q01DX009 (ip), vehicle: saline) 100 % of control; under setting [2], 100 % of control.
As to `OCCCCCn1cnc2c(=S)nc[nH]c21`, the T/C under setting [6] is 101 % of control; the T/C under setting [7] was 93 % of control; the T/C under setting [8] was 101 % of control; the T/C under setting [9] is 98 % of control; the T/C under setting [10] is 102 % of control; the T/C under setting [11] was 95 % of control.
On to `CC1(C)CCC(=NO)CC1`, for which the T/C is 103 % of control (dose: 75.0 mg/kg/injection, schedule: Q01DX001 (ip), vehicle: other) and 97 % of control (dose: 150.0 mg/kg/injection, schedule: Q01DX001 (ip), vehicle: other).
With `CN(CC(N)=O)C(=O)CNC(=O)OCc1ccccc1` (Cbz-Gly-[Sar]-NH2), the T/C runs as follows: under setting [7], 96 % of control; under setting [9], 99 % of control; under setting [11], 97 % of control.
Take `CCc1ccccc1Nc1cc(=O)[nH]c(=O)[nH]1`: the T/C reads like this: (dose: 37.5 mg/kg/injection, schedule: Q01DX001 (ip), vehicle: Klucel (hydroxypropylcellulose) (HPC)) 91 % of control; (dose: 75.0 mg/kg/injection, schedule: Q01DX001 (ip), vehicle: Klucel (hydroxypropylcellulose) (HPC)) 87 % of control; (dose: 150.0 mg/kg/injection, schedule: Q01DX001 (ip), vehicle: Klucel (hydroxypropylcellulose) (HPC)) 93 % of control.
For the compound `CN(CCO)/N=N/c1nc[nH]c1C(N)=O`, the T/C is 107 % of control under setting [22]; 113 % of control (dose: 200.0 mg/kg/injection, schedule: Q01DX001 (ip), vehicle: carboxymethylcellulose (CMC)); 107 % of control (dose: 400.0 mg/kg/injection, schedule: Q01DX001 (ip), vehicle: carboxymethylcellulose (CMC)); 169 % of control (dose: 400.0 mg/kg/injection, schedule: Q01DX009 (ip), vehicle: carboxymethylcellulose (CMC)); 92 % of control (dose: 800.0 mg/kg/injection, schedule: Q01DX009 (ip), vehicle: carboxymethylcellulose (CMC)).
As to `CS(=O)(=O)c1nc(Cl)nc(S(C)(=O)=O)c1Cl`, the T/C is, setting by setting: under setting [7], 110 % of control; under setting [9], 107 % of control; under setting [11], 104 % of control.
On to `CC(C)OP(=O)(Cc1ccccc1CBr)OC(C)C`, for which the T/C was 109 % of control (dose: 100.0 mg/kg/injection, schedule: Q04DX002 (ip), vehicle: saline); 102 % of control (dose: 200.0 mg/kg/injection, schedule: Q04DX002 (ip), vehicle: saline); 109 % of control (dose: 400.0 mg/kg/injection, schedule: Q04DX002 (ip), vehicle: saline).
As to `CC(=O)Oc1ccc(C2C3=C(COC3=O)CC3=C2C(=O)OC3)cc1`, the T/C reads like this: under setting [15], 104 % of control; under setting [16], 96 % of control; under setting [17], 100 % of control; under setting [18], 97 % of control; under setting [19], 96 % of control; (dose: 400.0 mg/kg/injection, schedule: Q04DX003 (ip), vehicle: saline with Tween-80) 96 % of control.
